# Data from PMC5477544, “Structural and mechanistic basis of differentiated inhibitors of the acute pancreatitis target kynurenine-3-monooxygenase” (Nature Communications, 2017).
# Read-outs that look alike come from different tables or passages of the source.
# Assays:
# Assay type in all cases: biochemical
# human KMO [1] = biological target: T1, human KMO (Homo sapiens, UniProt O15229); assay: Association kinetics (onset of inhibition timecourses); parameters: steady-state rate Vs, onset of inhibition timecourse: unit not given here; conditions: for kobs, onset of inhibition at sub-saturating NADPH: 10 nM GSK775(B2), regeneration system; for kobs, onset of inhibition: 200 μM NADPH, 10 μM L-Kyn
# T1 construct: full-length human KMO was cloned as an N-terminal GST fusion; GST (N); made in house; host or cells: Sf9 insect cells, used as a membrane fraction
# Procedure: For the association kinetics assays, measurements were performed in a buffer of 50 mM Hepes pH 7.5, 2 mM DTT, 1 mM EDTA, 0.1 mM Chaps. Reactions were performed at ambient temperature, by addition of human KMO enzyme to a mixture of L-Kyn and NADPH containing the test inhibitor. […] Aliquots of the mixtures were quenched into 0.5% TFA in water. L-Kyn and 3-HK levels in the quenched samples were measured using the Rapidfire mass spectrometry method described in Lowe et al.[12] Calibration curves for L-Kyn and 3-HK were used to correct for the lower detection response for 3-HK. Per cent turnover and resulting concentration of 3-HK were calculated for each time point in Excel. kobs values for onset of inhibition were obtained by fitting individual timecourses to equation 1 where t=time, vs=steady-state rate, vi=initial rate and c=background[43]. vi was fixed at the uninhibited rate obtained from the slope of the timecourse in the absence of inhibitor.
# human KMO [2] = biological target: T1, human KMO; assay: Dissociation kinetics (recovery of activity timecourses) and full kinetic analysis; parameters: steady-state rate Vs after equilibration of inhibitor binding, dissociation timecourse: unit not given here
# Procedure: The dissociation kinetics measurements were performed in a buffer of 50 mM Hepes pH 7.5, 2 mM DTT, 1 mM EDTA, 0.1 mM Chaps. […] Aliquots of the reaction mixtures were quenched into 0.5% TFA in water. 3-HK levels in the quenched samples were measured using the Rapidfire mass spectrometry assay described in Lowe et al.[12] A calibration curve for 3-HK was used to convert the data to concentration of 3-HK at each time point. kobs values for recovery of activity were obtained by fitting individual timecourses to equation 1 with vi (initial rate) set to zero.
# In this analysis, inhibitor kon was fixed at the value obtained in the association kinetic studies, and kcat and inhibitor koff were the two variable parameters.
# Pf KMO [3] = biological target: T2, Pf KMO (Pseudomonas fluorescens, UniProt Q84HF5, C252S/C461S); assay: L-Kyn KM determination, Rapidfire mass spectrometry, Pf-KMO
# T2 construct: Success was made possible by the use of a full-length P. fluorescens orthologue; made in house; host or cells: Escherichia coli BL21 (DE3)
# Procedure: (§1) The KM of kynurenine for human KMO and for Pf KMO were measured as described in Lowe et al.[12]. The KM of NADPH for human KMO was measured using a regeneration system as described in Lowe et al.[12], with a kynurenine concentration of 10 μM.
# human KMO [4] = biological target: T1, human KMO; assay: NADPH KM determination with regeneration system, human KMO; conditions: 10 M Kynurenine (so in the source)
# Procedure: as §1
# human KMO [5] = biological target: T1, human KMO; assay: Rapidfire mass spectrometry IC50 assay, isolated human KMO
# Procedure: For the expression and isolation of human KMO membranes, full-length human KMO was cloned as an N-terminal GST fusion, expressed in Sf9 cells and isolated as a membrane fraction as described in Lowe et al.[12]
# (§2) Inhibitor IC50 values against isolated human KMO were determined using a Rapidfire mass spectrometry assay as described in Lowe et al.[12] utilizing the Sf9 cell expressed human KMO described above. The inhibitor IC50 values against Pf-KMO were determined using an analogous Rapidfire mass spectrometry assay, utilizing the purified protein described above.
# Pf KMO [6] = biological target: T2, Pf KMO; assay: Rapidfire mass spectrometry IC50 assay, Pf-KMO; conditions: from inhibition curves of Fig. 3b; [Pf-KMO]=1 nM, [L-Kyn]=10 μM, [NADPH]=200 μM
# Procedure: as §2
# human KMO [7] = biological target: T1, human KMO; assay: Hydrogen peroxide formation, HRP/Amplex Red assay, human KMO
# Procedure: (§3) Measurements were performed in a buffer of 50 mM Hepes pH 7.5, 0.1 mM Chaps. A two-fold dilution series of test inhibitor and control compounds was prepared from DMSO solutions using the Hewlett-Packard D300 digital dispenser in a 384-well plate and normalized to a final DMSO concentration of 1% in the assay. 10 μl of 80 μg ml^−1 human KMO or 40 nM Pf-KMO were added. After 15 min incubation, 10 μl of a substrate/detection mix (2 U ml^−1 HRP, 20 μM Amplex Red, 40 μM NADPH) were added and the plate was read kinetically on a Tecan M1000 fluorescent plate reader with excitation wavelength 530 nm and emission wavelength 580 nm. A calibration curve comprising a two-fold dilution series of resorufin from 20 μM top concentration was included on the plate, and used to convert assay data to concentration of resorufin formed. Initial rate (μM min^−1) was extracted by linear fitting of the early region of each timecourse. Dose responses were fitted to a four parameter logistic expression where appropriate.
# Pf KMO [8] = biological target: T2, Pf KMO; assay: Hydrogen peroxide formation, HRP/Amplex Red assay, Pf-KMO
# Procedure: as §3
# [9] = from inhibition curves of Fig. 3b, read-out: IC50 Human KMO
# T2 sequence (Q84HF5 whole entry C252S/C461S): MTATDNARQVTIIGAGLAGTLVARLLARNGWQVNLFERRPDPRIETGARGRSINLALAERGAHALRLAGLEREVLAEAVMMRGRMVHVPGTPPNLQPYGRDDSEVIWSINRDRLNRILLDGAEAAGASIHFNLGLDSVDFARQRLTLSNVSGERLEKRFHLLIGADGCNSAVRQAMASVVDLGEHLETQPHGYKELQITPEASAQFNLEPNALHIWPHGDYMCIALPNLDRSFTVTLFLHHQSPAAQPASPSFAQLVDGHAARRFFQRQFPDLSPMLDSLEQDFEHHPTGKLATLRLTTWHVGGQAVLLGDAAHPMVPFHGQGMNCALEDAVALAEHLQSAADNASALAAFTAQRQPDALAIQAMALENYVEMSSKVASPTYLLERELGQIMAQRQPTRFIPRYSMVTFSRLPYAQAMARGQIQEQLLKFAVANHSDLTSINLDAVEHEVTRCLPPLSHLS
# T1 sequence (O15229 whole entry, the tested form may be a part): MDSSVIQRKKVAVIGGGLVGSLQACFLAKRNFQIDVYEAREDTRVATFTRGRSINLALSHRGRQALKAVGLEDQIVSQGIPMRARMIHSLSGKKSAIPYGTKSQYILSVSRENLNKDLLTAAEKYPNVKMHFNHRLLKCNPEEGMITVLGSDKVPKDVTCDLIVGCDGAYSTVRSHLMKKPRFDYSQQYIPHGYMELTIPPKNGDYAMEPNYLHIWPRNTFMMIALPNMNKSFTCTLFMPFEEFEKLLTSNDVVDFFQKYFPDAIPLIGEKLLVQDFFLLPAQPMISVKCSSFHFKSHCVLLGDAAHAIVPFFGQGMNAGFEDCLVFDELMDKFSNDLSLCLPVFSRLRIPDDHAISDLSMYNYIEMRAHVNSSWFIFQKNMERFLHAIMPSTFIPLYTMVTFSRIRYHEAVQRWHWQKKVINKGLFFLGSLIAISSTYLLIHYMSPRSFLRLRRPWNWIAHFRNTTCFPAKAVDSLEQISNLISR
smiles,measurement,setting,value
C[C@@H](Oc1cc2oc(=O)n(CCC(=O)O)c2cc1Cl)c1ccccn1 [GSK775],"kobs, onset of inhibition at sub-saturating NADPH",human KMO [1]; 1 uM NADPH,0.035 min⁻¹
same,"kobs, onset of inhibition at sub-saturating NADPH",human KMO [1]; 0.3 M NADPH (so in the source),0.013 min⁻¹
same,"kobs, onset of inhibition at sub-saturating NADPH",human KMO [1]; 5 M NADPH (so in the source),0.069 min⁻¹
same,"kobs, onset of inhibition",human KMO [1]; 10 nM inhibitor,0.062 min⁻¹
same,"onset kobs, times slower than for GSK428(A2)",human KMO [1]; same concentration conditions,at least 10 times
same,dissociation half life of KMO-inhibitor complex,human KMO [2]; human KMO,~2 h
"Nc1ccccc1C(=O)CC(N)C(=O)O [L-Kyn, L-kynurenine]",kcat,Pf KMO [3]; 200 μM NADPH,2.3 s⁻¹
same,Km,"Pf KMO [3]; read-out: L-Kyn KM, 200 μM NADPH",7 µM
NC(=O)C1=CN([C@@H]2O[C@H](COP(=O)(O)OP(=O)(O)OC[C@H]3O[C@@H](n4cnc5c(N)ncnc54)[C@H](OP(=O)(O)O)[C@@H]3O)[C@@H](O)[C@H]2O)C=CC1 [NADPH],Km,human KMO [4],1 µM
Cc1ccc([C@@H](C)Oc2cc3onc(CCC(=O)O)c3cc2Cl)nn1 [GSK366],IC50,human KMO [5]; [9],2.3 nM
same,mean slope of inhibition curve,human KMO [5]; human enzyme,1.9
same,IC50,"human KMO [5]; human enzyme, mean of n determinations given in text, read-out: IC50 (mean potency, in vitro activity)",2 nM
same,IC50,Pf KMO [6],0.7 nM
same,"kobs, onset of inhibition",human KMO [1]; 5 nM inhibitor,0.031 min⁻¹
Cc1cc2oc(=O)n(CCC(=O)O)c2cc1Cl [GSK428],IC50,human KMO [5]; [9],10 nM
same,Effect of [L-Kyn] on IC50 (mode of inhibition),human KMO [5]; human KMO,linear relationship
same,IC50,Pf KMO [6],60 nM
same,"steady-state rate Vs, onset of inhibition timecourse","human KMO [1]; 10 nM GSK428(A2), last 5 minutes of timecourse, uninhibited Vi = 0.022",0.004
same,"steady-state rate Vs after equilibration of inhibitor binding, dissociation timecourse",human KMO [2]; last 5 minutes of timecourse in presence of GSK428(A2),0.147
same,Generation of hydrogen peroxide,human KMO [7],stimulate peroxide (H2O2) production
same,Generation of hydrogen peroxide,Pf KMO [8],stimulate peroxide (H2O2) production
O=C(O)CCn1c(=O)oc2cc(OCc3ccccn3)c(Cl)cc21 [GSK891],IC50,human KMO [5]; [9],3.6 nM
same,IC50,Pf KMO [6],4.3 nM
C[C@@H](Oc1cc2onc(CCC(=O)O)c2cc1Cl)c1ccccn1 [GSK065],mean slope of inhibition curve,human KMO [5]; human enzyme,1.9
